Patent publication US20210308089A1, “METHODS OF TREATING AND/OR PREVENTING VIRAL INFECTIONS AND/OR DISEASES CAUSED BY VIRUSES IN A SUBJECT IN NEED THEREOF” (priority 2020, published 2021)

Tested on: statin-treated hypertriglyceridemic patients with cardiovascular disease or at high risk for cardiovascular disease
Test: REDUCE-IT: safety, treatment-emergent adverse events (incl. bleeding, atrial fibrillation/flutter, gastrointestinal)
[1] = REDUCE-IT safety population, 4 g/day
[2] = serious bleeding TEAE, % of N = 4089
[3] = serious bleeding TEAE, number (%) of N = 4089
[4] = serious bleeding TEAE, patients, N = 4089

## CC/C=C\C/C=C\C/C=C\C/C=C\C/C=C\CCCC(=O)OCC [icosapent ethyl, eicosapentaenoic acid ethyl ester]
% of N = 4089
  Serious TEAE: (30.6%)
  Serious TEAE Leading to Death: (2.3%)
  Serious TEAE Leading to Withdrawal of Study Drug: (2.2%)
  Subjects with at Least One TEAE: (81.8%)
  TEAE Leading to Withdrawal of Study Drug: (7.9%)
N = 4089, safety population
  Pneumonia, serious treatment-emergent adverse event: % of patients: 2.6%
  Pneumonia, serious treatment-emergent adverse event: number of patients: 105
[1]
  Anemia, adverse event rate: 4.7%
  Atrial fibrillation, adverse event rate: 5.3%
  Diarrhea, adverse event rate: 9%
  Gastrointestinal adverse events, rate: 33.0%
  Peripheral edema, adverse event rate: 6.5%
REDUCE-IT, 4 g/day
  Atrial fibrillation or flutter requiring hospitalization (prespecified adjudicated tertiary endpoint): 3.1%
  Fatal bleeding events: no fatal bleeding events
  Gastrointestinal bleeding (serious): 1.5%
  Serious central nervous system bleeding: 0.3%
  Tolerability: well tolerated
  Treatment-emergent serious adverse events for bleeding, rate: 2.7%
TEAE, system organ class, number (%) of N = 4089
  Gastrointestinal disorders: 1350 (33.0%)
TEAE, number (%) of N = 4089
  Anemia: 191 (4.7%)
  Angina pectoris: 200 (4.9%)
  Arthralgia: 313 (7.7%)
  Atrial fibrillation: 215 (5.3%)
  Back pain: 335 (8.2%)
  Bronchitis: 306 (7.5%)
  Cataract: 233 (5.7%)
  Chest pain: 273 (6.7%)
  Constipation: 221 (5.4%)
  Cough: 241 (5.9%)
  Diarrhea: 367 (9.0%)
  Dizziness: 235 (5.7%)
  Dyspnea: 254 (6.2%)
  Fatigue: 228 (5.6%)
  Gastroesophageal Reflux Disease: 124 (3.0%)
  Hypertension: 320 (7.8%)
  Influenza: 263 (6.4%)
  Nasopharyngitis: 314 (7.7%)
  Nausea: 190 (4.6%)
  Osteoarthritis: 241 (5.9%)
  Pain in extremity: 235 (5.7%)
  Peripheral edema: 267 (6.5%)
  Pneumonia: 263 (6.4%)
  Upper respiratory tract infection: 312 (7.6%)
  Urinary tract infection: 253 (6.2%)
Hospitalization for atrial fibrillation or atrial flutter, number (%) of N = 4089
  Positively Adjudicated Atrial Fibrillation/Flutter: 127 (3.1%)
Number of subjects, N = 4089
  Serious TEAE: 1252
  Serious TEAE Leading to Death: 94
  Serious TEAE Leading to Withdrawal of Study Drug: 88
  TEAE Leading to Withdrawal of Study Drug: 321
Number of subjects, Safety population N = 4089
  Subjects with at Least One TEAE: 3343
[2]
  Aortic Aneurysm Rupture: (0.0%)
  Brain Contusion: (0.0%)
  Catheter Site Hemorrhage: (0.0%)
  Central Nervous System Bleeding: (0.3%)
  Cerebral Hemorrhage: (0.0%)
  Cystitis Hemorrhagic: (0.0%)
  Diverticulitis Intestinal Hemorrhagic: (0.0%)
  Diverticulum Intestinal Hemorrhagic: (0.1%)
  Duodenal Ulcer Hemorrhage: (0.0%)
  Ecchymosis: (0.0%)
  Epistaxis: (0.2%)
  Esophageal Hemorrhage: (0.0%)
  Extravasation Blood: (0.0%)
  Gastric Hemorrhage: (0.0%)
  Gastric Ulcer Hemorrhage: (0.1%)
  Gastrointestinal Angiodysplasia Hemorrhagic: (0.0%)
  Gastrointestinal Bleeding: (1.5%)
  Gastrointestinal Hemorrhage: (0.6%)
  Genital Hemorrhage: (0.0%)
  Hemarthrosis: (0.0%)
  Hematemesis: (0.1%)
  Hematochezia: (0.0%)
  Hematoma: (0.0%)
  Hematuria: (0.2%)
  Hemoptysis: (0.0%)
  Hemorrhagic Anemia: (0.1%)
  Hemorrhagic Duodenitis: (0.0%)
  Hemorrhagic Transformation Stroke: (0.0%)
  Hemorrhoidal Hemorrhage: (0.1%)
  Hemothorax: (0.0%)
  Immune Thrombocytopenic Purpura: (0.0%)
  Intra-Abdominal Hemorrhage: (0.0%)
  Intracranial Hemorrhage: (0.0%)
  Large Intestinal Hemorrhage: (0.0%)
  Lower Gastrointestinal Hemorrhage: (0.1%)
  Mallory-Weiss Syndrome: (0.0%)
  Melaena: (0.1%)
  Menorrhagia: (0.0%)
  Mouth Hemorrhage: (0.0%)
  Other Bleeding: (1.0%)
  Pancreatitis Hemorrhagic: (0.0%)
  Patients with Bleeding-Related Disorders: (2.7%)
  Peptic Ulcer Hemorrhage: (0.0%)
  Pericardial Hemorrhage: (0.0%)
  Post Procedural Hematoma: (0.0%)
  Post Procedural Hematuria: (0.0%)
  Post Procedural Hemorrhage: (0.1%)
  Rectal Hemorrhage: (0.2%)
  Renal Hemorrhage: (0.0%)
  Retinal Hemorrhage: (0.0%)
  Retroperitoneal Hematoma: (0.0%)
  Retroperitoneal Hemorrhage: (0.0%)
  Shock Hemorrhagic: (0.0%)
  Subarachnoid Hemorrhage: (0.0%)
  Subdural Hematoma: (0.2%)
  Subdural Hemorrhage: (0.0%)
  Traumatic Hematoma: (0.0%)
  Traumatic Intracranial Hemorrhage: (0.0%)
  Ulcer Hemorrhage: (0.0%)
  Upper Gastrointestinal Hemorrhage: (0.1%)
  Urinary Bladder Hemorrhage: (0.0%)
[3]
  Bleeding related disorders: 111 (2.7%)
  Central Nervous System Bleeding: 14 (0.3%)
  Gastrointestinal Bleeding: 62 (1.5%)
  Other Bleeding: 41 (1.0%)
[4]
  Aortic Aneurysm Rupture: 1
  Brain Contusion: 0
  Catheter Site Hemorrhage: 0
  Central Nervous System Bleeding: 14
  Cerebral Hemorrhage: 0
  Cystitis Hemorrhagic: 2
  Diverticulitis Intestinal Hemorrhagic: 0
  Diverticulum Intestinal Hemorrhagic: 3
  Duodenal Ulcer Hemorrhage: 2
  Ecchymosis: 1
  Epistaxis: 7
  Esophageal Hemorrhage: 0
  Extravasation Blood: 1
  Gastric Hemorrhage: 1
  Gastric Ulcer Hemorrhage: 3
  Gastrointestinal Angiodysplasia Hemorrhagic: 1
  Gastrointestinal Bleeding: 62
  Gastrointestinal Hemorrhage: 26
  Genital Hemorrhage: 1
  Hemarthrosis: 0
  Hematemesis: 3
  Hematochezia: 1
  Hematoma: 1
  Hematuria: 8
  Hemoptysis: 1
  Hemorrhagic Anemia: 4
  Hemorrhagic Duodenitis: 0
  Hemorrhagic Transformation Stroke: 1
  Hemorrhoidal Hemorrhage: 3
  Hemothorax: 1
  Immune Thrombocytopenic Purpura: 0
  Intra-Abdominal Hemorrhage: 1
  Intracranial Hemorrhage: 0
  Large Intestinal Hemorrhage: 1
  Lower Gastrointestinal Hemorrhage: 5
  Mallory-Weiss Syndrome: 1
  Melaena: 3
  Menorrhagia: 1
  Mouth Hemorrhage: 0
  Other Bleeding: 41
  Pancreatitis Hemorrhagic: 1
  Patients with Bleeding-Related Disorders: 111
  Peptic Ulcer Hemorrhage: 1
  Pericardial Hemorrhage: 0
  Post Procedural Hematoma: 1
  Post Procedural Hematuria: 0
  Post Procedural Hemorrhage: 5
  Rectal Hemorrhage: 10
  Renal Hemorrhage: 0
  Retinal Hemorrhage: 1
  Retroperitoneal Hematoma: 0
  Retroperitoneal Hemorrhage: 1
  Shock Hemorrhagic: 2
  Subarachnoid Hemorrhage: 2
  Subdural Hematoma: 9
  Subdural Hemorrhage: 2
  Traumatic Hematoma: 2
  Traumatic Intracranial Hemorrhage: 0
  Ulcer Hemorrhage: 1
  Upper Gastrointestinal Hemorrhage: 3
  Urinary Bladder Hemorrhage: 1
